Measurements as given in PMC6152024 (Molecules : A Journal of Synthetic Chemistry and Natural …, 2017).

How the values were obtained:
CYP3A = CYP3A (Homo sapiens, UniProt P08684); experiment: Reversible CYP3A inhibition, testosterone 6β-hydroxylation in human liver microsomes; format: in vitro ADME; settings: HLMs, Lineweaver-Burk plot
Experimental: A NADPH regenerating system (NADPH-gs, containing 10 mM glucose-6-phosphate, 5 mM magnesium chloride, 1 U/mL glucose-6-phosphate dehydrogenase and 1 mM NADP+) was constructed. The metabolite of Tes, 6OH-Tes, was assayed by UHPLC-MS method (I) for CYP3A activity assessment.
The CYP3A inhibition by Gom A was preliminarily evaluated. […] After a 5 min warm up period, reactions were initiated with addition of NADPH-gs. Incubations were conducted at 37 °C for 10 min and then terminated by the addition of 200 µL ice-cold acetonitrile containing 18 ng/mL phenacetin (IS-I). […] Incubations were processed and terminated as described earlier.
Pharmacokinetic profiles of CTX and DCCTX were estimated by one-compartmental model using the DAS 2.0 software ([…], Medical College of Wannan, Anhui, China). Data were expressed as mean ± SD. Comparisons between two groups were performed using one-way ANOVA followed by LSD test in the condition of variance homogeneity or Dunnett T3 test in the case of variance heterogeneity. […] IC50 values of Gom A were determined by nonlinear regression analysis using GraphPad Prism 5.01 software (GraphPad Software Inc., San Diego, CA, USA). The mode of inhibition was verified by Lineweaver-Burk plots of the enzyme kinetic data, and the KI value was determined by linear regression analysis with GraphPad Prism 5.01 (GraphPad Software Inc.). […]

hepatic CYP3A mRNA = experiment: CYP3A expression assay (real-time PCR) in rat liver; format: in vivo; settings: normalized to GAPDH
Experimental: Rats were randomly divided into four groups (groups A−D, n = 5), respectively. In brief, rats in group A (vehicle control group) were i.g. administered with saline (10 mL/kg), and were euthanized 72 h later. Rats in groups B−D were i.g. administered with Gom A at dose of 20.8 mg/kg (50 µmol/kg, same with pharmacokinetic study), and euthanized 24, 48 and 72 h respectively after Gom A treatment. After euthanization, rat livers were immediately collected, washed with ice-cold saline, and stored at −80 °C for CYP3A protein expression assay.
To determine CYP3A mRNA content in rat liver, the liver samples were homogenized and the total RNA was extracted from liver samples using RNeasy Mini Kit according to the manufacturer’s instructions (Qiagen). The concentration of total RNA was determined by UV spectra at 260/280 nm, and the purity was determined by calculating the ration of UV absorbance. 2 µg of total RNA in a total volume of 50 µL (1 µg/25 µL) was reverse transcribed into template cDNA using dNTP mix (1 mM), random primers (0.5 µg/mL), AMV RT (22 U/µL), MgCl2 (25 mM) and RT buffer (10×).
For qRT-PCR, forward and reverse primer sequences (Table 2) of CYP3A gene were used. In a Stratagene Mx3005P sequence detection system (Agilent Technologies Agilent, Santa Clara, CA, USA), 50 ng of cDNA/sample and 10 µM forward and reverse primers were added to a total reaction mixture of 20 µL of SYBR Select Master Mix (Invitrogen). GAPDH was applied as the house-keeping gene. All assays were performed in triplicate. […] The CYP3A mRNA levels of groups A−D were expressed as a ratio of induced to vehicle control group (group A).

rat hepatic CYP3A = experiment: Effect of Gom A pretreatment on rat hepatic CYP3A activity (liver microsomes from pretreated rats); format: in vivo; settings: RLMs; for DCCTX production decrease compared with control group: CTX 100 ng/mL; for rat hepatic CYP3A activity, % of the control group activity: Tes 25 µM
Experimental: Rats were randomly divided into four groups (control group; pretreatment groups: 0.5 h group, 6 h group, 12 h group). Rats in control group and pretreatment groups were administrated (i.g.) with saline (2 mL/kg) and Gom A (20.8 mg/kg) respectively. In control group, rats were anesthetized 0.5 h after administration. In pretreatment groups, rats were anesthetized 0.5 h, 6 h, 12 h after Gom A pretreatment respectively. After anesthesia, the rat livers were infused with cool saline. After infusion, rats were euthanized and livers were collected. The liver microsomes were prepared using calcium precipitation method. Briefly, livers were weighted, washed with cool PBS (0.1 M), and then homogenized in cool Tris-PBS (50 mM Tris, w/v = 1:4). The mixture was centrifuged at 14,000 g for 20 min at 4 °C. The supernatant was mixed with CaCl2 solution (88 mM, vsupernantant/vCaCl2 = 10:1) and then centrifuged at 14,000 g for 20 min at 4 °C. The precipitate was resuspended in Tris-PBS and centrifuged (14,000 g, 4 °C, 20 min). Finally, the precipitate was resuspended in PBS containing 250 mM glucose, giving a concentration of 5 mg protein/mL. The prepared microsomes were stored at −80 °C until use.
To determine the effect of Gom A pretreatment on rat hepatic CYP3A activity, liver microsomes from control and pretreatment groups were incubated with Tes (25 µM) and CTX (100 ng/mL) respectively. The incubation procedures were similar with Section 4.3.1 and Section 4.3.4 for Tes and CTX incubation, respectively. For incubations using Tes, 0.5 mg/mL RLMs was incubated with 25 µM Tes in PBS (0.1 M) containing NADPH-gs at 37 °C in a total volume of 200 µL. After a 5 min warm up period, reactions were initiated with addition of NADPH-gs. Incubations were conducted at 37 °C for 10 min and then terminated by the addition of 200 µL ice-cold acetonitrile containing 18 ng/mL phenacetin (IS-I). For incubations using CTX, 0.5 mg/mL RLMs was incubated with 100 ng/mL CTX in PBS (0.1 M) containing NADPH-gs at 37 °C in a total volume of 200 µL. After a 5 min warm up period, reactions were initiated with addition of NADPH-gs. Incubations were conducted at 37 °C for 60 min and then terminated by the addition of 200 µL ice-cold acetonitrile containing 6 ng/mL of TNZ (IS-II).
After reaction termination, concentration of 6OH-Tes and DCCTX were determined.

[1] = 0.5 h after Gom A 20.8 mg/kg i.g.
[2] = 6 h after Gom A 20.8 mg/kg i.g.
[3] = 12 h after Gom A 20.8 mg/kg i.g.

CYP3A, sequence (P08684 2-503): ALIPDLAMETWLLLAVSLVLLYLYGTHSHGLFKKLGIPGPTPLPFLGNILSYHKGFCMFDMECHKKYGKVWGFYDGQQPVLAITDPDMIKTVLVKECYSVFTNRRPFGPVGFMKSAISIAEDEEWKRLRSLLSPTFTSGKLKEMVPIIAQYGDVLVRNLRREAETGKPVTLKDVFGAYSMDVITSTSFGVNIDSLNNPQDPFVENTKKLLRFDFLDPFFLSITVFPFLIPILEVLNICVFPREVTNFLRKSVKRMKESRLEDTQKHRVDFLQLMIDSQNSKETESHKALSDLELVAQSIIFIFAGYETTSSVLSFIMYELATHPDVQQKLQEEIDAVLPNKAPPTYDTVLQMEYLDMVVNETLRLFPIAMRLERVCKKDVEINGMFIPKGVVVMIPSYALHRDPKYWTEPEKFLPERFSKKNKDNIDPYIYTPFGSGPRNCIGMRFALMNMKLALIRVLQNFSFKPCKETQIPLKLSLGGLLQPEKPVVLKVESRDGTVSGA

In the case of Gomisin A [Gom A], the mode of inhibition (CYP3A) was “competitive inhibitor”, the “hepatic CYP3A mRNA expression increase vs vehicle group” value (“hepatic CYP3A mRNA expression increase” for short) (hepatic CYP3A mRNA; 24 h after single dose Gom A 20.8 mg/kg i.g.) was 73 fold and the “hepatic CYP3A mRNA expression increase” value (hepatic CYP3A mRNA; 48 h after single dose Gom A 20.8 mg/kg i.g.) was 18 fold. The “hepatic CYP3A mRNA expression increase” value (hepatic CYP3A mRNA; 72 h after single dose Gom A 20.8 mg/kg i.g.) was 8 fold, the “DCCTX production decrease compared with control group” value (“DCCTX production decrease” for short) (rat hepatic CYP3A; [1]) was 54.7% and the “rat hepatic CYP3A activity, % of the control group activity” value (from here on “rat hepatic CYP3A activity, %”) (rat hepatic CYP3A; [1]) was 52.1%. For the same substance, the “DCCTX production decrease” value (rat hepatic CYP3A; [2]) was 52.0%, the “rat hepatic CYP3A activity, %” value (rat hepatic CYP3A; [2]) was 37.3% and the “DCCTX production decrease” value (rat hepatic CYP3A; [3]) was 40.5%. For the same substance, the “rat hepatic CYP3A activity, %” value (rat hepatic CYP3A; [3]) was 61.2%.
